Results taken from patent US9907847B2, “Pyrrolopyrimidines as therapeutic agents for the treatment of diseases” (GlaxoSmithKline LLC, priority 2012, dated 2018).
Structures can show the parent of a compound that is named as a salt.

Legend:
IFN-α = assay: Induction of interferon-α using fresh human whole blood (WB); assay type: cell-based; settings: three donors, overnight incubation, response as % of 2 μM resiquimod control, read-out: mean pEC50 for IFN-α (converted)
Method: (§1) Assay for the Induction of Interferon-[…] and TNF-[…] Using Fresh Human Whole Blood (WB)
(§2) Compounds were prepared at 100× required concentration in DMSO in flat-bottom microtitre plates at a volume of 1.5 μL. Columns 1-10 contained a 1 in 4 serial dilution of the test compound. Included on each plate was a serial dilution of the TLR7/8 agonist resiquimod as a standard and Column 11 contained 1.5 μl of 200 μM resiquimod (giving a 2 μM final concentration, used to define the approximate maximal response to resiquimod). Each compound was assayed in duplicate for each donor.
(§3) Blood samples from three human donors were collected into sodium heparin (10 U/ml). 150 μl of whole Blood was dispensed into Col 1 to 11 of assay plates containing 1.5 μl of test compound or standard in DMSO. Plates were placed in an incubator overnight (37° C., 95% air, 5% CO2). Following the overnight incubation, plates were removed from the incubator & mixed on an orbital shaker for approximately 1 minute. 100 μl of 0.9% saline was added to each well and the plates mixed again on an orbital shaker. Plates were then centrifuged (2500 rpm, 10 mins), after which a sample of plasma was removed using a Biomek FX and assayed for both IFN-α and TNF-α using the MSD (Mesoscale Discovery) electrochemiluminescence assay platform. The IFN-α assay was carried out similarly to that described above. The TNF-α assay was carried out as per kit instructions (Cat No K111BHB).
(§4) Cytokine released was expressed as a percentage of the 2 μM resiquimod control (column 11). This percentage was plotted against compound concentration and the pEC50 for the response determined by non-linear least squares curve fitting. For the IFN-α responses, generally a 4 parameter logistic model was selected. For the TNF-α responses where a clear maximum response was obtained (i.e. a well defined plateau in the response was observed) then a 4 parameter model was generally used. If the upper asymptote of the curve wasn't well defined then the curve fitting was generally constrained to a maximal response of 100% (i.e. to the response to 2 μM resiquimod) or to the response of the highest concentration tested if this was greater than the resiquimod response. Some curves were bell shaped for one or both cytokines and the cytokine data on the down slope of the bell shaped response (i.e. concentrations above those giving the maximal response) were generally excluded from the fit, usually with the exception of the concentration immediately above the peak response. Curve fitting thus concentrated on the up slope of the dose response curve.

TNF-α = assay: Induction of TNF-α using fresh human whole blood (WB); assay type: cell-based; settings: three donors, overnight incubation, response as % of 2 μM resiquimod control, read-out: mean pEC50 for TNF-α (converted)
Method: as §1, §2, §3, §4

For `CCCCc1nc(N)c2[nH]c(C)c(CCCCCN3CC[C@@H](F)C3)c2n1` [Example 41, (R)-2-Butyl-7-(5-(3-fluoropyrrolidin-1-yl)pentyl)-6-methyl-5H-pyrrolo[3,2-d]pyrimidin-4-amine], which EC50 (IFN-α) is on record?
The EC50 was at most 5.01 µM.

And the EC50 (TNF-α)?
The EC50 was at least 5.01 µM.

For `COCCc1nc(N)c2[nH]cc(CCCCCCN3CCCCCC3)c2n1` [Example 30, 7-(6-(Azepan-1-yl)hexyl)-2-(2-methoxyethyl)-5H-pyrrolo[3,2-d]pyrimidin-4-amine], which EC50 (IFN-α) is on record?
Its EC50 is at most 5.01 µM.

And the EC50 (TNF-α)?
Its EC50 is at least 5.01 µM.

How did the EC50 (IFN-α) turn out when `CCCCc1nc(N)c2[nH]cc(CCCCCN3CC[C@H](F)C3)c2n1` [Example 25, (S)-2-Butyl-7-(5-(3-fluoropyrrolidin-1-yl)pentyl)-5H-pyrrolo[3,2-d]pyrimidin-4-amine] was run?
Its EC50 is at most 5.01 µM.

And the EC50 (TNF-α)?
The EC50 was at least 5.01 µM.

How did the EC50 (IFN-α) turn out when `CCCCc1nc(N)c2[nH]c(C)c(CCCCCCN3CCCCC3)c2n1` [Example 6, 2-Butyl-6-methyl-7-(6-(piperidin-1-yl)hexyl)-5H-pyrrolo[3,2-d]pyrimidin-4-amine] was run?
The EC50 was at most 5.01 µM.

What about the EC50 (TNF-α) of the same compound?
The EC50 was at least 5.01 µM.

How did the EC50 (IFN-α) turn out when `CCCCc1nc(N)c2[nH]cc(CCCCCN3CCC3)c2n1` [Example 17, 7-(5-(Azetidin-1-yl)pentyl)-2-butyl-5H-pyrrolo[3,2-d]pyrimidin-4-amine] was run?
The EC50 was at most 5.01 µM.

And the EC50 (TNF-α)?
Its EC50 is at least 5.01 µM.

`CCOCc1nc(N)c2[nH]cc(CCCCCCN3CCCCC3)c2n1` [Example 4, 2-(Ethoxymethyl)-7-(6-(piperidin-1-yl)hexyl)-5H-pyrrolo[3,2-d]pyrimidin-4-amine] was tested. Which EC50 (IFN-α) did it give?
The EC50 was at most 5.01 µM.

And the EC50 (TNF-α)?
Its EC50 is at least 5.01 µM.

For `CCCCc1nc(N)c2[nH]cc(CCCCCN3CC[C@H](O)C3)c2n1` [Example 28, (S)-1-(5-(4-Amino-2-butyl-5H-pyrrolo[3,2-d]pyrimidin-7-yl)pentyl)pyrrolidin-3-ol], which EC50 (IFN-α) is on record?
The EC50 was at most 5.01 µM.

What about the EC50 (TNF-α) of the same compound?
The EC50 was at least 5.01 µM.

Which results are given for `CCCCc1nc(N)c2[nH]cc(CCCCCN3CCC[C@H]3C)c2n1` [Example 35, (R)-2-Butyl-7-(5-(2-methylpyrrolidin-1-yl)pentyl)-5H-pyrrolo[3,2-d]pyrimidin-4-amine]?
EC50 (IFN-α): ≤ 5.01 µM; EC50 (TNF-α): ≥ 5.01 µM

Which EC50 (IFN-α) does the source give for `CCCCc1nc(N)c2[nH]cc(CCCCCN3CCC[C@@H]3C)c2n1` [Example 34, (S)-2-Butyl-7-(5-(2-methylpyrrolidin-1-yl)pentyl)-5H-pyrrolo[3,2-d]pyrimidin-4-amine] here?
The EC50 was at most 5.01 µM.

What about the EC50 (TNF-α) of the same compound?
Its EC50 is at least 5.01 µM.

Which EC50 (IFN-α) does the source give for `CCCCc1nc(N)c2[nH]cc(CCCCCCN3CCC(F)CC3)c2n1` [Example 31, 2-Butyl-7-(6-(4-fluoropiperidin-1-yl)hexyl)-5H-pyrrolo[3,2-d]pyrimidin-4-amine] here?
Its EC50 is at most 5.01 µM.

What about the EC50 (TNF-α) of the same compound?
The EC50 was at least 5.01 µM.

For `CCCCc1nc(N)c2[nH]c(C)c(CCCCN3CCCCCC3)c2n1` [Example 13, 7-(4-(Azepan-1-yl)butyl)-2-butyl-6-methyl-5H-pyrrolo[3,2-d]pyrimidin-4-amine], which EC50 (IFN-α) is on record?
Its EC50 is at most 5.01 µM.

What about the EC50 (TNF-α) of the same compound?
The EC50 was at least 5.01 µM.

With `CCCCc1nc(N)c2[nH]cc(CCCCCN3CCCCC3)c2n1` [Example 2, 2-Butyl-7-(5-(piperidin-1-yl)pentyl)-5H-pyrrolo[3,2-d]pyrimidin-4-amine] as the compound, how does the EC50 (IFN-α) read?
Its EC50 is at most 5.01 µM.

What about the EC50 (TNF-α) of the same compound?
The EC50 was at least 5.01 µM.

Which EC50 (IFN-α) does the source give for `CCCCc1nc(N)c2[nH]cc(CCCCCN3CCC(O)CC3)c2n1` [Example 23, 1-(5-(4-Amino-2-butyl-5H-pyrrolo[3,2-d]pyrimidin-7-yl)pentyl)piperidin-4-ol] here?
Its EC50 is at most 5.01 µM.

What about the EC50 (TNF-α) of the same compound?
Its EC50 is at least 5.01 µM.

How did the EC50 (IFN-α) turn out when `CCCCc1nc(N)c2[nH]cc(CCCCCN3CCCC3)c2n1` [Example 9, 2-Butyl-7-(5-(pyrrolidin-1-yl)pentyl)-5H-pyrrolo[3,2-d]pyrimidin-4-amine formate] was run?
The EC50 was at most 5.01 µM.

And the EC50 (TNF-α)?
Its EC50 is at least 5.01 µM.

How did the EC50 (IFN-α) turn out when `CCCCc1nc(N)c2[nH]cc(CCCCCCN3CCCC3)c2n1` [Example 10, 2-Butyl-7-(6-(pyrrolidin-1-yl)hexyl)-5H-pyrrolo[3,2-d]pyrimidin-4-amine] was run?
Its EC50 is at most 5.01 µM.

And the EC50 (TNF-α)?
The EC50 was at least 5.01 µM.

For `CCCCc1nc(N)c2[nH]cc(CCCCCN3CC(F)C3)c2n1` [Example 37, 2-Butyl-7-(5-(3-fluoroazetidin-1-yl)pentyl)-5H-pyrrolo[3,2-d]pyrimidin-4-amine], which EC50 (IFN-α) is on record?
The EC50 was at most 5.01 µM.

What about the EC50 (TNF-α) of the same compound?
The EC50 was at least 5.01 µM.

With `CCCCc1nc(N)c2[nH]c(C)c(CCCCN3CCCCC3)c2n1` [Example 8, 2-Butyl-6-methyl-7-(4-(piperidin-1-yl)butyl)-5H-pyrrolo[3,2-d]pyrimidin-4-amine] as the compound, how does the EC50 (IFN-α) read?
The EC50 was at most 5.01 µM.

What about the EC50 (TNF-α) of the same compound?
Its EC50 is at least 5.01 µM.

Which EC50 (IFN-α) does the source give for `CCCCc1nc(N)c2[nH]cc(CCCCCN3CC[C@@H](F)C3)c2n1` [Example 24, (R)-2-Butyl-7-(5-(3-fluoropyrrolidin-1-yl)pentyl)-5H-pyrrolo[3,2-d]pyrimidin-4-amine] here?
The EC50 was at most 5.01 µM.

And the EC50 (TNF-α)?
Its EC50 is at least 5.01 µM.

Which results are given for `CCCCc1nc(N)c2[nH]cc(CCCCCN3CCC(F)CC3)c2n1` [Example 21, 2-Butyl-7-(5-(4-fluoropiperidin-1-yl)pentyl)-5H-pyrrolo[3,2-d]pyrimidin-4-amine]?
EC50 (IFN-α): ≤ 5.01 µM; EC50 (TNF-α): ≥ 5.01 µM

For `CCCCc1nc(N)c2[nH]cc(CCCCN3CCCCC3)c2n1` [Example 3, 2-Butyl-7-(4-(piperidin-1-yl)butyl)-5H-pyrrolo[3,2-d]pyrimidin-4-amine], which EC50 (IFN-α) is on record?
Its EC50 is at most 5.01 µM.

What about the EC50 (TNF-α) of the same compound?
Its EC50 is at least 5.01 µM.

Which EC50 (IFN-α) does the source give for `COCCc1nc(N)c2[nH]cc(CCCCCCN3CCCCC3)c2n1` [Example 5, 2-(2-Methoxyethyl)-7-(6-(piperidin-1-yl)hexyl)-5H-pyrrolo[3,2-d]pyrimidin-4-amine hydrochloride] here?
Its EC50 is at most 5.01 µM.

What about the EC50 (TNF-α) of the same compound?
Its EC50 is at least 5.01 µM.

What does the source list for `CCCCc1nc(N)c2[nH]c(C)c(CCCCN3CCCC3)c2n1` [Example 19, 2-Butyl-6-methyl-7-(4-(pyrrolidin-1-yl)butyl)-5H-pyrrolo[3,2-d]pyrimidin-4-amine]?
EC50 (IFN-α): ≤ 5.01 µM; EC50 (TNF-α): ≥ 5.01 µM

Which results are given for `CCCCc1nc(N)c2[nH]c(C)c(CCCCCN3CCC3)c2n1` [Example 18, 7-(5-(Azetidin-1-yl)pentyl)-2-butyl-6-methyl-5H-pyrrolo[3,2-d]pyrimidin-4-amine]?
EC50 (IFN-α): ≤ 5.01 µM; EC50 (TNF-α): ≥ 5.01 µM

Which EC50 (IFN-α) does the source give for `CCCCc1nc(N)c2[nH]c(C)c(CCCCCN3CCC(F)CC3)c2n1` [Example 39, 2-Butyl-7-(5-(4-fluoropiperidin-1-yl)pentyl)-6-methyl-5H-pyrrolo[3,2-d]pyrimidin-4-amine] here?
The EC50 was at most 5.01 µM.

What about the EC50 (TNF-α) of the same compound?
The EC50 was at least 5.01 µM.

For `CCCCc1nc(N)c2[nH]cc(CCCCCN3CC(C)C3)c2n1` [Example 36, 2-Butyl-7-(5-(3-methylazetidin-1-yl)pentyl)-5H-pyrrolo[3,2-d]pyrimidin-4-amine], which EC50 (IFN-α) is on record?
The EC50 was at most 5.01 µM.

What about the EC50 (TNF-α) of the same compound?
Its EC50 is at least 5.01 µM.

For `CCCCc1nc(N)c2[nH]cc(CCCCCN3CCC(F)(F)CC3)c2n1` [Example 20, 2-Butyl-7-(5-(4,4-difluoropiperidin-1-yl)pentyl)-5H-pyrrolo[3,2-d]pyrimidin-4-amine], which EC50 (IFN-α) is on record?
Its EC50 is at most 5.01 µM.

What about the EC50 (TNF-α) of the same compound?
The EC50 was at least 5.01 µM.

`COCCc1nc(N)c2[nH]cc(CCCCCN3CCCC3)c2n1` [Example 43, 2-(2-Methoxyethyl)-7-(5-(pyrrolidin-1-yl)pentyl)-5H-pyrrolo[3,2-d]pyrimidin-4-amine] was tested. Which EC50 (IFN-α) did it give?
Its EC50 is at most 5.01 µM.

And the EC50 (TNF-α)?
The EC50 was at least 5.01 µM.

Which EC50 (IFN-α) does the source give for `CCCCc1nc(N)c2[nH]cc(CCCCCCN3CC[C@H](F)C3)c2n1` [Example 33, (S)-2-Butyl-7-(6-(3-fluoropyrrolidin-1-yl)hexyl)-5H-pyrrolo[3,2-d]pyrimidin-4-amine] here?
The EC50 was at most 5.01 µM.

And the EC50 (TNF-α)?
The EC50 was at least 5.01 µM.

`CCCCc1nc(N)c2[nH]c(C)c(CCCCCN3CCCCC3)c2n1` [Example 7, 2-Butyl-6-methyl-7-(5-(piperidin-1-yl)pentyl)-5H-pyrrolo[3,2-d]pyrimidin-4-amine] was tested. Which EC50 (IFN-α) did it give?
The EC50 was at most 5.01 µM.

And the EC50 (TNF-α)?
The EC50 was at least 5.01 µM.
